Experimental data from paper PMC5784245, “An Optimized Synthetic-Bioinformatic Natural Product Antibiotic Sterilizes Multidrug-Resistant Acinetobacter baumannii-Infected Wounds” (mSphere, 2018).
Converted amounts (≈) assume the structure as drawn. Non-standard residues stand in square brackets, D forms with d. Residues, ends and D or L forms follow the SMILES beside them. dOrn = NCCC[C@@H](N)C(=O)O; Orn = NCCC[C@H](N)C(=O)O

What was measured:
Streptococcus sobrinus = format: cell-based; conditions: 24 h
Description: (§1) Wang resins were purchased from Matrix Innovation. Reagents for peptide synthesis were purchased from P3 BioSystems, Chempep, and Chem-Impex International. The fluorescent dyes DiBAC4 and SYTOX were purchased from Thermo Fisher Scientific, and media were prepared from premixed powders: brain heart infusion for S. sobrinus and L. rhamnosus (Hardy Diagnostics), yeast extract-peptone-dextrose for C. albicans, lysogeny broth (LB) for all other bacteria (BD Biosciences), and McCoy’s 5A medium with 10% fetal bovine serum for HT-29 cells (American Type Culture Collection). All other chemicals and consumables were purchased from Sigma-Aldrich and VWR International. Paenimucillin 4F for in vivo studies was purchased from Ontores Biotechnologies as a high-performance liquid chromatography (HPLC)-purified peptide and used as is. Dye assays were performed in a Gen5 microtiter plate reader (Biotek Instruments). Liquid chromatography-mass spectrometry (LC-MS) analyses were performed by using an Acquity system (Waters Corporation).
(§2) Standard susceptibility assays were performed in LB medium in 96-well microtiter plates to determine the MIC by the broth microdilution method in accordance with protocols recommended by Clinical and Laboratory Standards Institute ([35]). Cytotoxicity was assessed using human HT-29 cells based on a similar broth microdilution method ([36]). All assays were performed in duplicate. For the cytotoxicity assay, 5,000 HT-29 cells per well were seeded into a microtiter plate and cultured for 24 h at 37°C in a 5% CO2 atmosphere. Peptides were supplemented at concentrations ranging from 128 to 0.5 μg/ml, and the cells were incubated for another 20 h. Growth media were removed, 3-(4,5-dimethylthiazol-2-yl)-2,5-diphenyltetrazolium bromide (MTT) was added to all wells (220 μl per well at 0.5 mg/ml), the mixture was incubated for 4 h, and then the media were discarded. Cell viability was determined by visual inspection.

Staphylococcus aureus = format: cell-based; conditions: 24 h
Description: as §1, §2

Pseudomonas aeruginosa = format: cell-based; conditions: 24 h
Description: as §1, §2

Enterococcus faecalis = format: cell-based; conditions: 24 h
Description: as §1, §2

Enterobacter cloacae = format: cell-based; conditions: 24 h
Description: as §1, §2

Klebsiella pneumoniae = format: cell-based; conditions: 24 h
Description: as §1, §2

Acinetobacter baumannii = format: cell-based; conditions: 24 h
Description: as §1, §2

Lactobacillus rhamnosus = format: cell-based; conditions: 24 h
Description: as §1, §2

Enterococcus faecium = format: cell-based; conditions: 24 h
Description: as §1, §2

Bacillus subtilis = format: cell-based; conditions: 24 h
Description: as §1, §2

[1] = tested on: MDR A. baumannii strain AB5075; assay: microbe, parasite or virus in culture; format: cell-based, Acinetobacter baumannii
Description: as §2

[2] = tested on: A. baumannii clinical isolate 1795; format: cell-based, Acinetobacter baumannii; conditions: clinical isolate 1795, 24 h
Description: as §1, §2

[3] = tested on: A. baumannii clinical isolate 1788; format: cell-based, Acinetobacter baumannii; conditions: clinical isolate 1788, 24 h
Description: as §1, §2

[4] = tested on: A. baumannii clinical isolate 1797; format: cell-based, Acinetobacter baumannii; conditions: clinical isolate 1797, 24 h
Description: as §1, §2

[5] = tested on: A. baumannii clinical isolate 1790; format: cell-based, Acinetobacter baumannii; conditions: clinical isolate 1790, 24 h
Description: as §1, §2

[6] = tested on: A. baumannii clinical isolate S5; format: cell-based, Acinetobacter baumannii; conditions: clinical isolate S5, 24 h
Description: as §1, §2

[7] = tested on: A. baumannii clinical isolate S3; format: cell-based, Acinetobacter baumannii; conditions: clinical isolate S3, 24 h
Description: as §1, §2

[8] = tested on: A. baumannii clinical isolate 1791; format: cell-based, Acinetobacter baumannii; conditions: clinical isolate 1791, 24 h
Description: as §1, §2

A. baumannii [9] = assay: Membrane depolarization assay (DiBAC4); format: cell-based, Acinetobacter baumannii; conditions: 4× MIC (8 μg/ml); DiBAC4 fluorescence at endpoint of assay; polymyxin at 4× MIC
Description: In a membrane depolarization assay ([31]), A. baumannii colonies were scraped off an agar plate and suspended in LB to optical density at 600 nm (OD600) of 0.5 to 0.6. The resulting suspension (1.8 ml) was mixed 9:1 with DiBAC4 (20 μg/ml), incubated at room temperature for 5 min, and monitored at 2-s intervals (excitation/emission, 492/515 nm) for 2 min. Various solutions were added (10 μl) while the fluorescence signal was continually being monitored. Paenimucillin C was tested at final concentrations of 2× and 4× its MIC, and polymyxin B and DMSO were used as positive and negative controls, respectively. The treated cultures were then monitored at 2-s intervals for another 5 min. Pore formation assays ([32]) were performed in the same way, except that Triton X-100 was used as the positive control at a final concentration of 0.25% (wt/vol).

[10] = Rat cutaneous wound model, tolerability; format: in vivo, Sprague-Dawley rats; conditions: uninfected wounded rats, topical 10 mg/ml
Description: The rat cutaneous wound model was used as described previously ([21]). Protocols for animal studies were approved by the Rutgers University Institutional Animal Care and Use Committee. All animals were humanely euthanized at the study endpoint by following the AVMA Guidelines for the Euthanasia of Animals. Immunocompetent Sprague-Dawley female rats (~200 g) were anesthetized by intraperitoneal injection of 100 mg/kg ketamine plus 10 mg/kg xylazine. Using a 1.0-cm-diameter disposable biopsy punch, two symmetrical wounds were created on the dorsum of each rat. A circular gauze dressing 8 mm in diameter was saturated overnight with either vehicle or 4F at 10 mg/ml in sterile centrifuge tubes. To assess tolerability, the rats were weighed daily and observed for wound healing, behavior changes, and visible adverse drug effects for 5 days. To assess efficacy, A. baumannii strain AB5075 was grown overnight and the culture was diluted to provide the challenge inoculum (500 CFU) as 50 μl of bacterial suspension in 0.9% (wt/vol) NaCl. A circular gauze dressing 8 mm in diameter was saturated overnight with vehicle, tetracycline, or 4F at 10 mg/ml in sterile centrifuge tubes. These saturated dressings were topically applied to the wound site with sterile forceps twice daily, starting at 30 min postinoculation, for 6 days. […]

C. albicans = assay: Toxicity assessment, MIC against C. albicans; format: cell-based, Candida albicans; conditions: Brady lab strain; yeast extract-peptone-dextrose; surrogate for cytotoxicity; duplicate
Description: as §1, with “Liquid chromatography-mass spectrometry (LC-MS) analyses were performed by using an Acquity system (Waters Corporation).” left out
Standard susceptibility assays were performed in LB medium in 96-well microtiter plates to determine the MIC by the broth microdilution method in accordance with protocols recommended by Clinical and Laboratory Standards Institute ([35]). Cytotoxicity was assessed using human HT-29 cells based on a similar broth microdilution method ([36]). […] Cell viability was determined by visual inspection.

[11] = tested on: MDR A. baumannii strain AB5075; assay: Rat cutaneous wound model, efficacy; format: in vivo, Sprague-Dawley rats; conditions: rat wound infected with AB5075 (500 CFU)
Description: The rat cutaneous wound model was used as described previously ([21]). Protocols for animal studies were approved by the Rutgers University Institutional Animal Care and Use Committee. All animals were humanely euthanized at the study endpoint by following the AVMA Guidelines for the Euthanasia of Animals. Immunocompetent Sprague-Dawley female rats (~200 g) were anesthetized by intraperitoneal injection of 100 mg/kg ketamine plus 10 mg/kg xylazine. Using a 1.0-cm-diameter disposable biopsy punch, two symmetrical wounds were created on the dorsum of each rat. A circular gauze dressing 8 mm in diameter was saturated overnight with either vehicle or 4F at 10 mg/ml in sterile centrifuge tubes. To assess tolerability, the rats were weighed daily and observed for wound healing, behavior changes, and visible adverse drug effects for 5 days. To assess efficacy, A. baumannii strain AB5075 was grown overnight and the culture was diluted to provide the challenge inoculum (500 CFU) as 50 μl of bacterial suspension in 0.9% (wt/vol) NaCl. A circular gauze dressing 8 mm in diameter was saturated overnight with vehicle, tetracycline, or 4F at 10 mg/ml in sterile centrifuge tubes. These saturated dressings were topically applied to the wound site with sterile forceps twice daily, starting at 30 min postinoculation, for 6 days. Rats were observed twice daily for morbidity and possible signs of acute toxicity. Two and four independent cutaneous wounds were tested in tolerability and efficacy assessments, respectively.

A. baumannii [12] = assay: Pore formation assay (SYTOX); format: cell-based, Acinetobacter baumannii; conditions: 4× MIC (8 μg/ml), SYTOX fluorescence

Compound | MIC Streptococcus sobrinus (Streptococcus sobrinus) | MIC Staphylococcus aureus (Staphylococcus aureus) | MIC Pseudomonas aeruginosa (Pseudomonas aeruginosa) | MIC Enterococcus faecalis (Enterococcus faecalis) | MIC Enterobacter cloacae (Enterobacter cloacae) | MIC Klebsiella pneumoniae (Klebsiella pneumoniae) | MIC Acinetobacter baumannii (Acinetobacter baumannii) | MIC Lactobacillus rhamnosus (Lactobacillus rhamnosus) | MIC Enterococcus faecium (Enterococcus faecium) | MIC Bacillus subtilis (Bacillus subtilis) | MIC for A. baumannii clinical isolate 1795 [2] | MIC for A. baumannii clinical isolate 1788 [3] | MIC for A. baumannii clinical isolate 1797 [4] | MIC for A. baumannii clinical isolate 1790 [5] | MIC for A. baumannii clinical isolate S5 [6] | MIC for A. baumannii clinical isolate S3 [7] | MIC for A. baumannii clinical isolate 1791 [8] | MIC, toxicity assessment, C. albicans (C. albicans) | other results
CC[C@@H](C)[C@@H](NC(=O)[C@@H](NC(=O)[C@H](CO)NC(=O)[C@H](Cc1ccccc1)NC(=O)[C@@H](CCCN)NC(=O)[C@H](CO)NC(=O)[C@H](CO)NC(=O)[C@@H](Cc1ccccc1)NC(=O)[C@@H](CO)NC(=O)[C@H](NC(=O)[C@@H](CCCN)NC(=O)[C@@H](Cc1ccccc1)NC(C)=O)[C@H](C)CC)C(C)C)C(=O)N[C@@H](CCCN)C(=O)O [4F, paenimucillin C] (Ac-[dF][dOrn][dI][dS][dF]SS[dOrn]FSV[dI][Orn]-OH) | 16 µg/mL (≈ 10.5 µM) | 32 µg/mL (≈ 21.1 µM) | 128 µg/mL (≈ 84.3 µM) | 64 µg/mL (≈ 42.2 µM) | 32 µg/mL (≈ 21.1 µM) | 4 µg/mL (≈ 2.64 µM) | 2 µg/mL (≈ 1.32 µM) | 16 µg/mL (≈ 10.5 µM) | 32 µg/mL (≈ 21.1 µM) | 16 µg/mL (≈ 10.5 µM) | 4 µg/mL | 4 µg/mL | 4 µg/mL | 4 µg/mL | 4 µg/mL | 4 µg/mL | 2 µg/mL | 128 µg/mL (≈ 84.3 µM) | in vitro MIC, A. baumannii AB5075 ([1]; MDR strain AB5075, 24 h): 1 µg/mL; membrane depolarization relative to polymyxin (A. baumannii [9]): ~ 25%; weight loss ([10]; 5 days, within normal range due to analgesia, two wounds): ≤ 5%; acute toxicity and change in behavior ([10]; observed 5 days): Neither acute toxicity nor any change in behavior was seen; wound sterilization after 1 day ([11]; topical 10 mg/ml twice daily): completely sterilized the wounds; bacterial burden throughout the 5-day study ([11]; topical 10 mg/ml twice daily, P < 0.00001): 0 CFU; pore formation relative to Triton X-100 (A. baumannii [12]): ~ 75%
CC[C@@H](C)[C@@H](NC(=O)[C@@H](NC(=O)[C@H](CO)NC(=O)[C@H](Cc1c[nH]c2ccccc12)NC(=O)[C@@H](CCCN)NC(=O)[C@H](CO)NC(=O)[C@H](CO)NC(=O)[C@@H](Cc1c[nH]c2ccccc12)NC(=O)[C@@H](CO)NC(=O)[C@H](NC(=O)[C@@H](CCCN)NC(=O)[C@@H](Cc1ccccc1)NC(C)=O)[C@H](C)CC)C(C)C)C(=O)N[C@@H](CCCN)C(=O)O [4W] (Ac-[dF][dOrn][dI][dS][dW]SS[dOrn]WSV[dI][Orn]-OH) | 2 µg/mL (≈ 1.25 µM) | 4 µg/mL (≈ 2.51 µM) | 16 µg/mL (≈ 10 µM) | 4 µg/mL (≈ 2.51 µM) | 2 µg/mL (≈ 1.25 µM) | 2 µg/mL (≈ 1.25 µM) | 1 µg/mL (≈ 0.627 µM) | 2 µg/mL (≈ 1.25 µM) | 32 µg/mL (≈ 20.1 µM) | 1 µg/mL (≈ 0.627 µM) | 2 µg/mL | 2 µg/mL | 2 µg/mL | 0.5 µg/mL | 4 µg/mL | 4 µg/mL | 0.5 µg/mL | 128 µg/mL (≈ 80.2 µM) | –
CN(C)[C@@H]1C(O)=C(C(N)=O)C(=O)[C@@]2(O)C(O)=C3C(=O)c4c(O)cccc4[C@@](C)(O)[C@H]3C[C@@H]12 [tetracycline, reference compound] | – | – | – | – | – | – | – | – | – | – | – | – | – | – | – | – | – | – | MIC ([1]; Acinetobacter baumannii, MDR strain AB5075, read-out: in vitro MIC, A. baumannii AB5075): 0.25 µg/mL (≈ 0.563 µM); bacterial burden of wound, day 3 ([11]; topical 10 mg/ml twice daily from 0.5 h postinoculation, four wounds, ±1 SD): 6.4 ± 0.31 log CFU
